System: 60 human tumor cell line panel
Assay: NCI 60 cell line one-dose SRB primary anticancer assay
Assay type: cell-based
Conditions: 60 cell lines assay in one dose, 10µM (title; head prints 10.0 mM), 48 h; for inhibition at 10 µM: Homo sapiens, read-out: MGI % (Mean growth inhibition percentage)
Experimental: A primary anticancer assay was performed for an approximately 60 human tumor cell line panel derived from nine neoplastic diseases, in accordance with the protocol of the Drug Evaluation Branch, National Cancer Institute, Bethesda, MD (Monks A. et al., J. Natl. Cancer Inst 1991, 83, 757-766; Boyd M.R. and Paull K.D., Drug. Dev. Res. 1995, 34, 91-109; Shoemaker R.H., Nat. Rev. Cancer 2006, 6, 813-823). Briefly, tested compounds were added to the culture at a single concentration (10^-5M), and the cultures were incubated for 48 h. End point determinations were made with a protein binding dye, sulforhodamine B (SRB). The results for each tested compound were reported as the growth percentage of the treated cells when compared to that of the untreated control cells. The percentage growth was evaluated spectrophotometrically versus controls not treated with test agents.

O=C(O)c1cn(C2CC2)c2cc(N3CCNCC3)c(F)cc2c1=O [Ciprofloxacin (b), Ciprofloxacin, reference compound]
Most sensitive cell lines: Renal Cancer (UO-31, A498) | PCE (Positive cytotoxic effect: ratio between number of cell lines with percentage growth inhibition from 10 to >100 and total number of cell lines): 2/57 | RGI % (Range of growth inhibition percentage): 28.85 to 13.76% | inhibition at 10 µM: -1.41%

O=C(O)c1cn(C2CC2)c2cc(N3CCN(S(=O)(=O)c4ccc(Cl)cc4)CC3)c(F)cc2c1=O [Compound 1b]
Most sensitive cell lines: Melanoma (LOX IMVI, M14), Renal Cancer (A498, CAKI-1, UO-31), Prostate Cancer (PC-3), Breast Cancer (T-47D) | PCE (Positive cytotoxic effect: ratio between number of cell lines with percentage growth inhibition from 10 to >100 and total number of cell lines): 7/53 | RGI % (Range of growth inhibition percentage): 59.75 to 10.12% | inhibition at 10 µM: 3.5%

CCn1cc(C(=O)O)c(=O)c2cc(F)c(N3CCN(S(=O)(=O)c4ccc(OC)c(OC)c4)CC3)cc21 [Compound 4a]
Most sensitive cell lines: Leukemia (MOLT-4, SR), CNS Cancer (SF-268, SNB-75) Melanoma (LOX IMVI, M14), Renal Cancer (UO-31), Prostate Cancer (PC-3), Breast Cancer (T-47D) | PCE (Positive cytotoxic effect: ratio between number of cell lines with percentage growth inhibition from 10 to >100 and total number of cell lines): 9/58 | inhibition at 10 µM: 2.33%

COc1ccc(S(=O)(=O)N2CCN(c3cc4c(cc3F)c(=O)c(C(=O)O)cn4C3CC3)CC2)cc1OC [Compound 4b]
Most sensitive cell lines: NSC Lung Cancer (HOP-62, HOP-92), CNS Cancer (SNB-75), Melanoma (LOX IMVI), Renal Cancer (UO-31), Breast Cancer (T-47D) | PCE (Positive cytotoxic effect: ratio between number of cell lines with percentage growth inhibition from 10 to >100 and total number of cell lines): 6/58 | RGI % (Range of growth inhibition percentage): 35.09 to 10.43% | inhibition at 10 µM: 1.84%

COc1ccc(S(=O)(=O)N2CCN(c3cc4c(cc3F)c(=O)c(C(=O)O)cn4C3CC3)CC2)c(OC)c1 [Compound 5b]
Most sensitive cell lines: Leukemia (CCRF-CEM, HL-60(TB), K-562, MOLT-4, PRMI-8226, SR), NSC Lung Cancer (HOP-62, NCI-H226), CNS Cancer (SF-268, SF-539, SNB-19, SNB-75), Melanoma (LOX IMVI, SK-MEL-5, UACC-62), Renal Cancer (A498, UO-31), Breast Cancer (T-47D, MDA-MB-468) | PCE (Positive cytotoxic effect: ratio between number of cell lines with percentage growth inhibition from 10 to >100 and total number of cell lines): 19/58 | RGI % (Range of growth inhibition percentage): 46.83 to 10.48% | inhibition at 10 µM: 7.33%

O=C(O)c1cn(C2CC2)c2cc(N3CCN(CCN4CCOCC4)CC3)c(F)cc2c1=O [Compound 8b]
Most sensitive cell lines: NSC Lung Cancer (HOP-92, NCI-H522), Melanoma ( MALME-3M), Renal Cancer (UO-31), Prostate Cancer (PC-3) | PCE (Positive cytotoxic effect: ratio between number of cell lines with percentage growth inhibition from 10 to >100 and total number of cell lines): 5/57 | RGI % (Range of growth inhibition percentage): 24.51 to 10.05% | inhibition at 10 µM: -2.2%

O=C(O)c1cn(C2CC2)c2cc(N3CCN(CCN4C(=O)c5ccccc5C4=O)CC3)c(F)cc2c1=O [Compound 9b]
Most sensitive cell lines: CNS Cancer (SNB-75), Renal Cancer (UO-31), Breast Cancer (MCF7) | PCE (Positive cytotoxic effect: ratio between number of cell lines with percentage growth inhibition from 10 to >100 and total number of cell lines): 3/58 | RGI % (Range of growth inhibition percentage): 36.83 to 13.18% | inhibition at 10 µM: -2.69%

O=C(O)c1cn(C2CC2)c2cc(N3CCN(CCCN4C(=O)c5ccccc5C4=O)CC3)c(F)cc2c1=O [Compound 10b]
Most sensitive cell lines: Leukemia (CCRF-CEM, PRMI-8226), Renal Cancer (UO-31) | PCE (Positive cytotoxic effect: ratio between number of cell lines with percentage growth inhibition from 10 to >100 and total number of cell lines): 3/57 | RGI % (Range of growth inhibition percentage): 38.76 to 13.64% | inhibition at 10 µM: -4.16%

Reference: EP2987533B1, “7-substituted piperazin-1-yl fluoroquinolone compounds, their use in the treatment of cancer, pharmaceutical compositions and a method for preparation” (priority 2014, dated 2016)
